For this assay, the system named is CD2F1 mice, L1210 leukemia ip, survival T/C. The assay can be described thus: NCI In Vivo Anticancer Drug Screen. Data for tumor model L1210 Leukemia (intraperitoneal) in CD2F1 (CDF1) mice. Conditions: higher = longer survival. A digest of the protocol: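 Each value reflects a quotient of treated over vehicle control outcomes in mice with a transplanted tumor.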

Several values for one entry are separate records, joined by “and”; a condition that tells them apart may be missing. Equal entries are not always repeated. Toxic doses and inconclusive results are not listed.

For `FCCc1ccc(F)cc1`, the T/C runs as follows: (endpoint: mean survival time, dose: 100.0 mg/kg/injection, schedule: Q01DX001 (ip), vehicle: saline with Tween-80) 101 % of control; (endpoint: mean survival time, dose: 100.0 mg/kg/injection, schedule: Q04DX003 (ip), vehicle: saline sonified) 93 % of control; (endpoint: mean survival time, dose: 200.0 mg/kg/injection, schedule: Q01DX001 (ip), vehicle: saline with Tween-80) 100 % of control; (endpoint: mean survival time, dose: 200.0 mg/kg/injection, schedule: Q04DX003 (ip), vehicle: saline sonified) 100 % of control; (endpoint: mean survival time, dose: 400.0 mg/kg/injection, schedule: Q01DX001 (ip), vehicle: saline with Tween-80) 101 % of control; (endpoint: mean survival time, dose: 400.0 mg/kg/injection, schedule: Q04DX003 (ip), vehicle: saline sonified) 98 % of control.

Take `C1CN(P2(N3CC3)=NP(N3CC3)(N3CC3)=NP(N3CC3)(N3CC3)=N2)CCO1` (stereo not given): the T/C reads like this: (endpoint: mean survival time, dose: 6.25 mg/kg/injection, schedule: Q01DX009 (ip), vehicle: saline) 120 % of control and 123 % of control and 109 % of control; (endpoint: mean survival time, dose: 25.0 mg/kg/injection, schedule: Q01DX001 (ip), vehicle: saline) 121 % of control; (endpoint: mean survival time, dose: 50.0 mg/kg/injection, schedule: Q01DX001 (ip), vehicle: saline) 119 % of control; (endpoint: mean survival time, dose: 100.0 mg/kg/injection, schedule: Q01DX009 (ip), vehicle: saline) 98 % of control.

Consider `CC(=O)NC(CCC(=O)C=[N+]=N)C(=O)O` (stereo not given), for which the T/C is, setting by setting: (endpoint: mean survival time, dose: 0.01 mg/kg/injection, schedule: Q03HX016 (ip), vehicle: saline) 97 % of control; (endpoint: mean survival time, dose: 0.03 mg/kg/injection, schedule: Q03HX008 (ip), vehicle: saline) 95 % of control; (endpoint: mean survival time, dose: 0.04 mg/kg/injection, schedule: Q03HX016 (ip), vehicle: saline) 97 % of control; (endpoint: mean survival time, dose: 0.06 mg/kg/injection, schedule: Q03HX008 (ip), vehicle: saline) 97 % of control; (endpoint: mean survival time, dose: 0.06 mg/kg/injection, schedule: Q03HX016 (ip), vehicle: saline) 94 % of control; (endpoint: mean survival time, dose: 0.13 mg/kg/injection, schedule: Q01DX005 (iv), vehicle: saline) 98 % of control. Besides, the T/C is 103 % of control (endpoint: mean survival time, dose: 0.13 mg/kg/injection, schedule: Q01DX009 (ip), vehicle: saline); 102 % of control (endpoint: mean survival time, dose: 0.13 mg/kg/injection, schedule: Q01DX009 (oral), vehicle: saline); 104 % of control (endpoint: mean survival time, dose: 0.13 mg/kg/injection, schedule: Q03HX008 (ip), vehicle: saline); 106 % of control (endpoint: mean survival time, dose: 0.13 mg/kg/injection, schedule: Q03HX016 (ip), vehicle: saline); 90 % of control (endpoint: mean survival time, dose: 0.13 mg/kg/injection, schedule: Q03HX024 (ip), vehicle: saline); 101 % of control (endpoint: mean survival time, dose: 0.13 mg/kg/injection, schedule: Q04DX003 (ip), vehicle: saline). For the same compound, the T/C (endpoint: mean survival time, dose: 0.13 mg/kg/injection, schedule: Q08DX002 (ip), vehicle: saline) is 94 % of control; the T/C (endpoint: mean survival time, dose: 0.25 mg/kg/injection, schedule: Q01DX001 (ip), vehicle: saline) was 92 % of control; the T/C (endpoint: mean survival time, dose: 0.25 mg/kg/injection, schedule: Q01DX001 (iv), vehicle: saline) was 103 % of control; the T/C (endpoint: mean survival time, dose: 0.25 mg/kg/injection, schedule: Q01DX005 (iv), vehicle: saline) is 106 % of control; the T/C (endpoint: mean survival time, dose: 0.25 mg/kg/injection, schedule: Q01DX009 (ip), vehicle: saline) was 112 % of control; the T/C (endpoint: mean survival time, dose: 0.25 mg/kg/injection, schedule: Q01DX009 (oral), vehicle: saline) was 113 % of control. The T/C (endpoint: mean survival time, dose: 0.25 mg/kg/injection, schedule: Q03HX008 (ip), vehicle: saline) was 115 % of control and 122 % of control; the T/C (endpoint: mean survival time, dose: 0.25 mg/kg/injection, schedule: Q03HX024 (ip), vehicle: saline) was 100 % of control; the T/C (endpoint: mean survival time, dose: 0.25 mg/kg/injection, schedule: Q04DX003 (ip), vehicle: saline) is 101 % of control; the T/C (endpoint: mean survival time, dose: 0.25 mg/kg/injection, schedule: Q08DX002 (ip), vehicle: saline) is 97 % of control; the T/C (endpoint: mean survival time, dose: 0.4 mg/kg/injection, schedule: Q01DX009 (ip), vehicle: water) was 166 % of control; the T/C (endpoint: mean survival time, dose: 0.5 mg/kg/injection, schedule: Q01DX001 (ip), vehicle: saline) was 97 % of control. Also, the T/C is, setting by setting: (endpoint: mean survival time, dose: 0.5 mg/kg/injection, schedule: Q01DX001 (iv), vehicle: saline) 103 % of control; (endpoint: mean survival time, dose: 0.5 mg/kg/injection, schedule: Q01DX005 (iv), vehicle: saline) 118 % of control; (endpoint: mean survival time, dose: 0.5 mg/kg/injection, schedule: Q04DX003 (ip), vehicle: saline) 106 % of control; (endpoint: mean survival time, dose: 0.5 mg/kg/injection, schedule: Q08DX002 (ip), vehicle: saline) 104 % of control; (endpoint: mean survival time, dose: 0.8 mg/kg/injection, schedule: Q01DX009 (ip), vehicle: water) 115 % of control; (endpoint: mean survival time, dose: 1.0 mg/kg/injection, schedule: Q01DX001 (ip), vehicle: saline) 106 % of control. Besides, the T/C by setting is: (endpoint: mean survival time, dose: 1.0 mg/kg/injection, schedule: Q01DX001 (iv), vehicle: saline) 107 % of control; (endpoint: mean survival time, dose: 1.0 mg/kg/injection, schedule: Q01DX001 (oral), vehicle: saline) 110 % of control; (endpoint: mean survival time, dose: 1.0 mg/kg/injection, schedule: Q01DX009 (ip), vehicle: saline) 119 % of control; (endpoint: mean survival time, dose: 1.0 mg/kg/injection, schedule: Q01DX009 (oral), vehicle: saline) 115 % of control; (endpoint: mean survival time, dose: 1.0 mg/kg/injection, schedule: Q03HX016 (ip), vehicle: saline) 151 % of control; (endpoint: mean survival time, dose: 1.0 mg/kg/injection, schedule: Q03HX024 (ip), vehicle: saline) 181 % of control. The T/C is 117 % of control (endpoint: mean survival time, dose: 1.0 mg/kg/injection, schedule: Q04DX003 (ip), vehicle: saline); 158 % of control (endpoint: mean survival time, dose: 1.0 mg/kg/injection, schedule: Q06HX012 (ip), vehicle: saline); 111 % of control (endpoint: mean survival time, dose: 1.0 mg/kg/injection, schedule: Q08DX002 (ip), vehicle: saline); 104 % of control and 109 % of control (endpoint: mean survival time, dose: 2.0 mg/kg/injection, schedule: Q01DX001 (ip), vehicle: saline); 107 % of control (endpoint: mean survival time, dose: 2.0 mg/kg/injection, schedule: Q01DX001 (iv), vehicle: saline); 120 % of control (endpoint: mean survival time, dose: 2.0 mg/kg/injection, schedule: Q01DX001 (oral), vehicle: saline). In addition, the T/C (endpoint: mean survival time, dose: 2.0 mg/kg/injection, schedule: Q01DX005 (ip), vehicle: saline) was 109 % of control; the T/C (endpoint: mean survival time, dose: 2.0 mg/kg/injection, schedule: Q01DX005 (iv), vehicle: saline) was 120 % of control; the T/C (endpoint: mean survival time, dose: 2.0 mg/kg/injection, schedule: Q03HX016 (ip), vehicle: saline) was 152 % of control; the T/C (endpoint: mean survival time, dose: 2.0 mg/kg/injection, schedule: Q03HX024 (ip), vehicle: saline) was 108 % of control; the T/C (endpoint: mean survival time, dose: 2.0 mg/kg/injection, schedule: Q04DX003 (ip), vehicle: saline) is 121 % of control and 124 % of control; the T/C (endpoint: mean survival time, dose: 2.0 mg/kg/injection, schedule: Q06HX008 (ip), vehicle: saline) was 156 % of control. Besides, the T/C (endpoint: mean survival time, dose: 2.0 mg/kg/injection, schedule: Q06HX012 (ip), vehicle: saline) is 151 % of control; the T/C (endpoint: mean survival time, dose: 2.0 mg/kg/injection, schedule: Q08DX002 (ip), vehicle: saline) was 113 % of control and 107 % of control; the T/C (endpoint: mean survival time, dose: 4.0 mg/kg/injection, schedule: Q01DX001 (ip), vehicle: saline) is 112 % of control; the T/C (endpoint: mean survival time, dose: 4.0 mg/kg/injection, schedule: Q01DX001 (iv), vehicle: saline) was 117 % of control; the T/C (endpoint: mean survival time, dose: 4.0 mg/kg/injection, schedule: Q01DX001 (oral), vehicle: saline) was 115 % of control; the T/C (endpoint: mean survival time, dose: 4.0 mg/kg/injection, schedule: Q01DX005 (ip), vehicle: saline) was 102 % of control. Also, the T/C was 152 % of control (endpoint: mean survival time, dose: 4.0 mg/kg/injection, schedule: Q06HX008 (ip), vehicle: saline); 113 % of control (endpoint: mean survival time, dose: 4.0 mg/kg/injection, schedule: Q06HX012 (ip), vehicle: saline); 111 % of control (endpoint: mean survival time, dose: 4.0 mg/kg/injection, schedule: Q08DX002 (ip), vehicle: saline); 116 % of control (endpoint: mean survival time, dose: 8.0 mg/kg/injection, schedule: Q01DX001 (ip), vehicle: saline); 116 % of control (endpoint: mean survival time, dose: 8.0 mg/kg/injection, schedule: Q01DX001 (oral), vehicle: saline); 114 % of control (endpoint: mean survival time, dose: 8.0 mg/kg/injection, schedule: Q08DX002 (ip), vehicle: saline). Also, under “endpoint: mean survival time, dose: 16.0 mg/kg/injection, schedule: Q04DX003 (ip), vehicle: saline”, the T/C is 154 % of control.

On to `C1CCC(C2CCCC[N-]2)[N-]C1.CCC(C)C([NH-])C(=O)O.[Cl][Pt]` (stereo not given), for which the T/C is 101 % of control (endpoint: median survival time, dose: 10.0 mg/kg/injection, schedule: Q04DX003 (ip), vehicle: saline); 98 % of control (endpoint: median survival time, dose: 20.0 mg/kg/injection, schedule: Q04DX003 (ip), vehicle: saline); 101 % of control (endpoint: median survival time, dose: 40.0 mg/kg/injection, schedule: Q04DX003 (ip), vehicle: saline); 98 % of control (endpoint: median survival time, dose: 80.0 mg/kg/injection, schedule: Q04DX003 (ip), vehicle: saline).
